From paper PMC7956620 (Molecules, 2021)
Numbering of substitutions follows the chain as printed.

Tests used:
[1] = target: T1, 5-HT3A receptor I139A mutant (Homo sapiens, UniProt P46098, I134A/I139A); test: two-electrode voltage clamp, I139A mutant receptor in Xenopus oocytes; format: cell-based; conditions: 100 µM chanoclavine, read-out: Inhibition Percentage (%)
T1 construct: host or cells: Xenopus laevis oocytes injected with in vitro transcribed mRNA
T1 sequence (P46098 24-478 I134A/I139A): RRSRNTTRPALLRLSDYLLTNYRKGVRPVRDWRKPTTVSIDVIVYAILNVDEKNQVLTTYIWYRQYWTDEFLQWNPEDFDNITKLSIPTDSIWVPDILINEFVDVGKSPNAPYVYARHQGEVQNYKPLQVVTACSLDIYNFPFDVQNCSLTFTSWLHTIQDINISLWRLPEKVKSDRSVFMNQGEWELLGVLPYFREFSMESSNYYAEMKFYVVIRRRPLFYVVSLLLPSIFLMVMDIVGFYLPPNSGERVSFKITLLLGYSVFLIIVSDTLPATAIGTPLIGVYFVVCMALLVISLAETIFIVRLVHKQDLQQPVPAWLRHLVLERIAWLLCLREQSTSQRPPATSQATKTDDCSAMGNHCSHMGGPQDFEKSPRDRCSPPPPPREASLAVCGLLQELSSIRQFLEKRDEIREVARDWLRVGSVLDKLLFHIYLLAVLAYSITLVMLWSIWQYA
Description: (§1) The site-directed mutation of one or two amino acids was performed using sense and antisense primers and Pfu polymerase (QuickChange Site-Directed Mutagenesis Kit; Agilent, Santa Clara, CA, USA) and amplified by polymerase chain reaction (PCR) to increase the target domain. After removing the existing methylated cDNA using Dpn Ⅰ, the PCR products were transformed into Escherichia coli strain DH5α. The cDNA of the 5-HT3A receptor was linearized by Xho Ⅰ at the end of the multi-cloning site, followed by transcription using T7 polymerase and a transcription kit (mMESSAGE mMACHINE T7 Transcription Kit; Thermo Fisher Scientific, Waltham, MA, USA). […]
(§2) To isolate oocytes, female Xenopus laevis were put into a container filled with ice and left for about one hour. […] When the Xenopus oocytes were ready for injection, 50 ng of mRNA was injected with a nanoliter injector (Drummond Scientific, Vernon Hills, IL, USA). […]
(§3) The oocytes in which mRNA was expressed during the incubation period allowed for the estimation of channel or receptor properties for observing drug and ligand potential interactions using a two-electrode voltage clamp (OC-725C; Warner Instruments, Hamden, CT, USA) and Digidata (1322A; Molecular Devices, Sunnyvale, CA, USA). […] The voltage and current electrodes were filled with 3 M KCl (0.3–0.7 MΩ) and analyzed at a −80 mV holding potential. […]

[2] = target: T2, 5-HT3A receptor R92A mutant (Homo sapiens, UniProt P46098, R87A); test: two-electrode voltage clamp, R92A mutant receptor in Xenopus oocytes; format: cell-based; conditions: 100 µM chanoclavine, read-out: Inhibition Percentage (%)
T2 construct: host or cells: Xenopus laevis oocytes injected with in vitro transcribed mRNA
T2 sequence (P46098 24-478 R87A): T1 sequence (P46098 24-478 I134A/I139A) with R64A, A111I, A116I
Description: as §1, §2, §3

## CN[C@@H]1Cc2c[nH]c3cccc(c23)[C@H]1/C=C(\C)CO [chanoclavine]
[1]
  inhibition at 100 µM: 92.8 ± 4.9%
[2]
  inhibition at 100 µM: 95.45 ± 0.3%
